Laboratory results: paper PMC9231250, “Cardio- and Neurotoxicity of Selected Anti-COVID-19 Drugs” (Pharmaceuticals, 2022)
Structures can show the parent of a compound that is named as a salt. Where two headings read alike, the source gives them in different places.

Columns and labels:
[1] = test system: hiPSC-CMs
[2] = test system: hiPSC-NEURs
[3] = test system: COVID-19 patients; details: cited from earlier work
[4] = test system: hiPSC-NEURs; assay: Neurotoxicity screen, CellTiter-Glo cell viability in hiPSC-derived neurons; details: for IC50: Homo sapiens, Neuron
[5] = test system: hiPSC-CMs; assay: Cardiotoxicity screen, CellTiter-Glo cell viability in hiPSC-derived cardiomyocytes; details: 24 h; for IC50: Homo sapiens, Cardiomyocyte, read-out: cardiotoxicity IC50; for cardiotoxicity (in words): hiPSC-CMs, CellTiter-Glo
[6] = following the clinical dosing regimen; cited from earlier work
[7] = test system: Vero (African monkey epithelial) cells; details: cited from earlier work
[8] = test system: Huh7.5 (human epithelial-like) cells; details: Huh7.5 cells; cited from earlier work
[9] = 24 h, read-out: neurotoxicity IC50
[10] = hiPSC-NEURs, 24 h, CellTiter-Glo

SMILES | cardiotoxicity (in words) [1] | neurotoxicity (in words) [2] | in-hospital mortality ([3]; COVID-19 patients, 200 mg three times per day) | IC50 [4, 9] [µM] | IC50 [5] [µM] | plasma concentration, lower end [6] [µM] | plasma concentration, upper end [6] [µM] | cell toxicity [7] | cell toxicity [8] | adverse effects on the cardiovascular system [3] | IC50 ([4]; read-out: neurotoxicity, individual variability between individuals (lowest)) [µM] | neurotoxicity (in words) [4, 10] | cardiotoxicity (in words) [5] | further neurotoxicity on addition of azithromycin [2] | neurotoxicity (in words) ([4]; hiPSC-NEURs, 24 h, CellTiter-Glo, listed as Hydroxychloroquine) | further neurotoxicity on addition of azithromycin ([4]; hiPSC-NEURs, combined with 5 µM or 10 µM azithromycin, 24 h, CellTiter-Glo)
CCOC(=O)c1c(CSc2ccccc2)n(C)c2cc(Br)c(O)c(CN(C)C)c12 [arbidol, arbidol hydrochloride] | Cardiotoxic | Neurotoxic | increased risk of in-hospital mortality | 42 | 61 | – | – | – | – | – | – | – | – | – | – | –
CCC(CC)COC(=O)[C@H](C)N[P@](=O)(OC[C@H]1O[C@@](C#N)(c2ccc3c(N)ncnn23)[C@H](O)[C@@H]1O)Oc1ccccc1 [remdesivir] | – | – | – | 41 | 51 | ≥ 16.7 | ≤ 1700 | did not observe cell toxicity | did not observe cell toxicity | hypotension, atrial fibrillation rhythm, and sinus bradycardia | 3 | Neurotoxic | Cardiotoxic | – | – | –
CCN(CC)CCCC(C)Nc1ccnc2cc(Cl)ccc12 (stereo not shown) [chloroquine] | – | Neurotoxic | – | 71 | – | – | – | – | – | – | – | – | – | did not induce further neurotoxicity | – | –
CCN(CCO)CCCC(C)Nc1ccnc2cc(Cl)ccc12 (stereo not shown) [hydroxychloroquine] | – | – | – | 52 | – | – | – | observe toxicity | observe toxicity | – | – | toxicity in neurons | not cardiomyocytes | – | Neurotoxic | did not induce further neurotoxicity
